Test results from patent US10617680B2 (CELGENE QUANTICEL RESEARCH, INC., priority 2017, dated 2020).

What follows are molecules tested against CBP (Homo sapiens (Human), UniProt Q92793) (assay: In vitro CBP inhibition (AlphaScreen, biotinylated H4-tetraacetyl peptide)). Conditions: AlphaScreen, Table 29; read-out: CBP IC50.
CBP, sequence (Q92793 1081-1197): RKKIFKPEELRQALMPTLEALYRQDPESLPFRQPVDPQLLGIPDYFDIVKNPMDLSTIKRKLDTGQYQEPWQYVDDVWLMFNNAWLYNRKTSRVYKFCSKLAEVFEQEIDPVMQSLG
Format: binding
Method in brief: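 His-tagged CBP expressed in E. coli (50 nM final) incubated with biotinylated H4K5/8/12/16(Ac) peptide (20 nM final) in 50 mM HEPES pH 7.3, 10 mM NaCl, 0.25 mM TCEP, 0.1% BSA, 0.005% Brij-35, 0.4% DMSO, 20 min at room temp.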
With `Cn1cc(-c2cnn(Cc3ccccc3)c2)c(N2CC[C@@H](NS(C)(=O)=O)C2)cc1=O` [Example 174, (R)-N-(1-(5-(1-benzyl-1H-pyrazol-4-yl)-1-methyl-2-oxo-1,2-dihydropyridin-4-yl)pyrrolidin-3-yl)methanesulfonamide] the IC50 was 500 to 5000 nM. With `CCOc1cc(=O)n(C)cc1-c1cnn(-c2cccc(OC)c2C#N)c1` [Example 177, 2-[4-(4-Ethoxy-1-methyl-6-oxo-1,6-dihydro-pyridin-3-yl)-pyrazol-1-yl]-6-methoxy-benzonitrile] the IC50 was < 500 nM. For `CCNc1ncc(-c2cc(=O)n(C)cc2-c2cnn(-c3cccc(F)c3C#N)c2)cn1` [Example 333, 2-[4-[4-[2-(ethylamino)pyrimidin-5-yl]-1-methyl-6-oxo-3-pyridyl]pyrazol-1-yl]-6-fluoro-benzonitrile], the IC50 was < 500 nM. For `CCCn1ccc(-c2cc(=O)n(C)cc2-c2cnn(-c3cccc(C4CC4)c3C#N)c2)cc1=O` [Example 385, 2-cyclopropyl-6-[4-[1-methyl-6-oxo-4-(2-oxo-1-propyl-4-pyridyl)-3-pyridyl]pyrazol-1-yl]benzonitrile], the IC50 was < 500 nM. With `Cn1cc(-c2cnn(-c3cccc(F)c3C#N)c2)c(-c2ccc(OCC3CC3)nc2)cc1=O` [Example 360, 2-[4-[4-[6-(cyclopropylmethoxy)-3-pyridyl]-1-methyl-6-oxo-3-pyridyl]pyrazol-1-yl]-6-fluoro-benzonitrile] the IC50 was < 500 nM. `CC(c1ccccc1)n1cc(-c2cn(C)c(=O)cc2Oc2ccccc2)cn1` (stereo not drawn) [Example 57, 1-methyl-4-phenoxy-5-(1-(1-phenylethyl)-1H-pyrazol-4-yl) pyridin-2(1H)-one] gave an IC50 of 500 to 5000 nM. In the case of `Cn1cc(-c2cnn(CC3CC3(F)F)c2)c(-c2ccccc2)cc1=O` (stereo not drawn) [Example 190, 5-[1-(2,2-Difluoro-cyclopropylmethyl)-1H-pyrazol-4-yl]-1-methyl-4-phenyl-1H-pyridin-2-one], the IC50 is reported as < 500 nM. In the case of `CNS(=O)(=O)C1CCN(c2cc(=O)n(C)cc2-c2cnn(Cc3ccccc3)c2)C1` (stereo not drawn) [Example 172, 1-(5-(1-benzyl-1H-pyrazol-4-yl)-1-methyl-2-oxo-1,2-dihydropyridin-4-yl)-N-methylpyrrolidine-3-sulfonamide], the IC50 is reported as < 500 nM. `Cn1cc(-c2cnn(Cc3ccccc3)c2)c(OCCC(=O)O)cc1=O` [Example 166, 3-[5-(1-Benzyl-1H-pyrazol-4-yl)-1-methyl-2-oxo-1,2-dihydro-pyridin-4-yloxy]-propionic acid] was tested, and the IC50 was < 500 nM. In the case of `CNc1cc(=O)n(C)cc1-c1cnn(C(C)c2ccccc2)c1` (stereo not drawn) [Example 42, 1-methyl-4-(methyl-amino)-5-(1-(1-phenylethyl)-1H-pyrazol-1-yl) pyridin-2(1H)-one], the IC50 is reported as < 500 nM. For `CC(C)Oc1ccc(-c2cc(=O)n(C)cc2-c2cnn(-c3ccccc3C(=O)O)c2)cn1` [Example 231, 2-[4-(6-Isopropoxy-1′-methyl-6′-oxo-1′,6′-dihydro-[3,4′]bipyridinyl-3′-yl)-pyra.zol-1-yl]-benzoic acid], the IC50 was < 500 nM. In the case of `Cn1cc(-c2cnn(-c3cccc(Cl)c3C#N)c2)c(-c2cnc(N3CCCC3)nc2)cc1=O` [Example 330, 2-chloro-6-(4-(1-methyl-6-oxo-4-(2-(pyrrolidin-1-yl)pyrimidin-5-yl)-1,6-dihydropyridin-3-yl)-1H-pyrazol-1-yl)benzonitrile], the IC50 is reported as < 500 nM. In the case of `Cc1cc(-c2cc(=O)n(C)cc2-c2cnn(-c3ccccc3C#N)c2)cn(C)c1=O` [Example 239, 2-(4-(1,1′,5-trimethyl-6,6′-dioxo-1,1′,6,6′-tetrahydro-[3,4′-bipyridin]-3′-yl)-1H-pyrazol-1-yl)benzonitrile], the IC50 is reported as < 500 nM. Molecule `CC(c1ccncc1)n1cc(-c2ccc(=O)n(C)c2)cn1` (stereo not drawn) [Example 29, 1-methyl-5-(1-(1-(pyridin-4-yl)ethyl)-1H-pyrazol-4-yl)pyridin-2(1H)-one] has an IC50 of 500 to 5000 nM. `Cn1cc(-c2cnn(Cc3ccccc3)c2)c(-n2ccc(C#N)c2)cc1=O` [Example 80, 1-(5-(1-benzyl-1H-pyrazol-4-yl)-1-methyl-2-oxo-1,2-dihydropyridin-4-yl)-1H-pyrrole-3-carbonitrile] was tested, and the IC50 was < 500 nM.
